One experiment has as its system mice. The experiment can be described thus: Sucrose pellet self-administration, extinction and cue-induced reinstatement. It counts as in vivo. As to the method: Mice were first injected with UNC0642 (2 mg/kg, i.p) or vehicle-alone once daily for 10 days. Thirty minutes following the 10th dose, they began the first 2-hour sucrose self-administration session. The UNC0642 and vehicle injections occurred 30 minutes before the start of each sucrose self-administration, extinction, and reinstatement session. All self-administration experiments occurred in standard operant chambers with two nose-poke detectors, a house light, and a cue light and tone generator (Med Associates, Fairfield, Vt.). All sucrose-paired nose-pokes, including those during the timeout, were recorded and are reported as “paired nose pokes”. No fasting occurred during any stage of the experiment. During the 2-hour sessions, mice were trained to nose-poke in the paired side on a fixed-ratio 1 (FR1) schedule with 15-second timeout period after delivery of a single sucrose pellet. Concurrent with the pellet delivery, a cue tone and cue light (which is located immediately above the paired nose-poke port) are activated. All mice had ten self-administration sessions. […] Finally, we examined the number of nose-pokes on the paired side during timeout periods. Similar to the paired nose-poke data above, there was a slight effect on the interaction between UNC0642 treatment and sex. […] Overall, UNC0642 had no effect on sucrose-taking behavior as all groups increased their responding for sucrose pellets over time, and they learned and remembered the relationship between the reinforced (sucrose-paired) and the non-reinforced (unpaired) ports.
Sucrose-seeking behaviors were next tested in these same mice. Following a 7-day period in the home cage with ad libitum food and water, all mice began extinction training for 6 consecutive days (a model of context-associated sucrose-seeking behavior). […] Finally, light/tone cue-induced reinstatement behavior (a model of discreet cue-induced sucrose-seeking behavior) was tested one day after the 6th extinction session in a single 2-hour session. Mice were allowed to nose-poke for light and tone cues without receiving pellets. […] We also found UNC0642 had no effect on UNC0642 on the number of unpaired nose pokes during cue induced reinstatement of sucrose pellet self-administration (FIG. 9J; Three-Way ANOVA, Day: F1,26=6.739, p=0.0153, Sex: F1,26=6.739, p=0.0153, no other significant effects) and UNC0642 had no effect on the discrimination ratio between paired and unpaired nose pokes during cue-induced reinstatement of sucrose pellet self-administration (FIG. 9K; Three-Way ANOVA, Sex: F1,26=5.880, p=0.0226, no other significant effects).

A further experiment concerns C57BL/6J mice. Put plainly: U50,488 (kappa agonist) stress-potentiated two-bottle choice ethanol drinking under systemic UNC0642. It counts as in vivo. As for the experimental part:
Systemic G9A inhibitor administration and stress-potentiated drinking. […] Mice were then divided into 2 even groups and given chronic injections of either vehicle or 4 mg/kg UNC0642 for 2 weeks similar to a previous in vivo study in mice (Wang et al., 2018). Next, following 3 days of withdrawal, control mice were injected with 5 mg/kg U50,488 only and chronic treated mice were given both U50,488 and UNC0642 in the same injection 30 minutes before the session. This test was repeated again the following day and then only vehicle injections were given to all mice for the next 3 days before two-bottle choice testing. Finally, after another 3 day withdrawal, an acute injection of UNC0642+U50,488 was given to the naïve control group while U50,488 alone was administered to the chronic UNC0642 group 30 minutes before drinking.
Systemic EHMT2/G9A Inhibition Suppresses Stress-induced Ethanol Drinking Since reducing EHMT2/G9A levels in the NAc blocked stress-regulated ethanol drinking in mice, we tested whether systemic delivery of a specific EHMT2/G9A methyltransferase inhibitor, UNC0642 (Liu et al, 2013), could block stress-potentiated ethanol drinking. Wild-type mice were allowed to drink ethanol for 2 weeks prior to repeated, daily injections of UNC0642 (4 mg/kg; i.p.) given 30 minutes prior to the 2-bottle choice sessions (FIG. 5A). […] Mice were then allowed to continue ethanol drinking for one additional week before the UNC0642-naïve mice (former vehicle control group) were injected with either vehicle or UNC0642 (4 mg/kg; i.p.) and tested for U50,488-potentiated ethanol drinking.
Since UNC0642 (4 mg/kg, i.p.) blocked stress-regulated ethanol drinking in mice as shown above, it was next tested whether this effect was dose-dependent and if it worked similarly in both sexes. There are reported sex/gender differences in the risk of developing several neuropsychiatric conditions, including AUD, SUD, and mood disorders, and while there was no a priori expectation of a sex-difference in UNC0642 efficacy in reducing stress-potentiated alcohol drinking, we wished to confirm that the treatment would be effective in both males and females. Similar to the studies described hereinabove (FIG. 5A), wild-type mice (both male and female) were allowed to drink ethanol for 2 weeks prior to repeated, daily injections of UNC0642 (4 mg/kg; 2 mg/kg, 1 mg/kg, or 0 mg/kg (vehicle), i.p.) given 30 minutes prior to the 2-bottle choice sessions. […]

The structures appear in SMILES notation.

As for `COc1cc2c(NC3CCN(C(C)C)CC3)nc(N3CCC(F)(F)CC3)nc2cc1OCCCN1CCCC1` [UNC0642, 2-(4,4-Difluoropiperidin-1-yl)-6-methoxy-N-[1-(propan-2-yl)piperidin-4-yl]-7-[3-(pyrrolidin-1-yl)propoxy]quinazolin-4-amine], in the experiment with mice (2 mg/kg i.p. once daily, 30 min before session, FR1, FIG. 9A), the “number of sucrose pellets earned during sucrose pellet self-administration” value is recorded as “no effect”. Further, in the experiment on mice (2 mg/kg i.p., 6 extinction days, FIG. 9F), the “number of paired nose pokes during extinction learning following sucrose pellet self-administration” value was “no effect”. Besides, the “number of unpaired nose pokes during sucrose pellet self-administration” value with mice (2 mg/kg i.p., FIG. 9C) is “no effect”. Moreover, in the experiment on mice (2 mg/kg i.p., FIG. 9D), the “discrimination ratio between paired and unpaired nose pokes during sucrose pellet self-administration” value is listed as “no effect”. In the experiment on mice (2 mg/kg i.p., FIG. 9G), the “unpaired nose-pokes during extinction learning following sucrose pellet self-administration” value is “no effect”. The “discrimination ratio between paired and unpaired nose pokes during extinction learning” value in the experiment with mice (2 mg/kg i.p., FIG. 9H) is recorded as “no effect”. In addition, in the experiment on mice (2 mg/kg i.p., FIG. 9I), the “number of paired nose pokes during cue induced reinstatement of sucrose pellet self-administration” value is “no effect”. The “number of unpaired nose pokes during cue induced reinstatement of sucrose pellet self-administration” value in the experiment on mice (2 mg/kg i.p., FIG. 9J) is given as “no effect”. For the same molecule, the “discrimination ratio between paired and unpaired nose pokes during cue-induced reinstatement” value in the experiment on mice (2 mg/kg i.p., FIG. 9K) is reported as “no effect”. Besides, the “paired nose-pokes during self-administration, female mice” value in the experiment with mice (2 mg/kg i.p., female mice in UNC0642 group, Day X Treatment interaction, FIG. 9B) is “slight increase”. Moreover, the “timeout responding, female mice” value in the experiment on mice (2 mg/kg i.p., female mice in UNC0642 group, FIG. 9E) is listed as “slightly higher”. The “number of paired nose pokes during sucrose pellet self-administration” value in the experiment with mice (2 mg/kg i.p., overall, FIG. 9B) was “no overall effect”. Moreover, the “number of timeout responses on the paired nose port during sucrose pellet self-administration” value with mice (2 mg/kg i.p., overall, FIG. 9E) was “no overall effect”. Besides, the “U50,488-potentiated ethanol drinking, chronic UNC0642 2 mg/kg” value with C57BL/6J mice (2 mg/kg i.p. daily, male and female mice, both sexes similarly, FIG. 7B) is recorded as “suppressed”. For the same molecule, in the experiment on C57BL/6J mice (4 mg/kg i.p. daily, male and female mice, both sexes similarly, FIG. 7B), the “U50,488-potentiated ethanol drinking, chronic UNC0642 4 mg/kg” value is “suppressed”. The “U50,488-potentiated ethanol drinking, chronic UNC0642 treatment” value in the experiment with C57BL/6J mice (chronic 4 mg/kg i.p. for 2 weeks, U50,488 5 mg/kg i.p. 30 min before session, FIG. 5C) is on record as “suppressed”. The “U50,488-potentiated ethanol drinking, single (acute) injection of UNC0642” value in the experiment with C57BL/6J mice (single 4 mg/kg i.p. with U50,488 5 mg/kg in UNC0642-naive mice, FIG. 5D) is “failed to influence stress-potentiated drinking”.

These data come from patent US20230218631A1 (priority 2020, published 2023).
